Experimental data taken from the NIST ThermoML archive (doi:10.1021/acs.jced.5b00367).
Numbers after ± are expanded uncertainties.

Legend:
[1] = mn = molality of the nth substance listed, in mol/kg; details: 303.15 K, 100 kPa, Liquid, Alternating current cell with electrodes
[2] = Crystal; visual observation
[3] = wn = mass fraction of the nth substance listed; details: 101 kPa, Liquid, Alternating current cell with electrodes, w1 = 0.01

CCCCCCCCCCCCCCCC[N+](C)(C)CC[N+](C)(C)CCCCCCCCCCCCCCCC.[Br-].[Br-] + O
[1]
Details | electrical conductivity [S/m]
m1 = 5e-06 | 0.00031 ± 0.00013
m1 = 1e-05 | 0.0004 ± 0.00016
m1 = 1.5e-05 | 0.00049 ± 0.0002
m1 = 2e-05 | 0.00058 ± 0.00023
m1 = 2.5e-05 | 0.00065 ± 0.00026
m1 = 3e-05 | 0.00073 ± 0.00029
m1 = 3.5e-05 | 0.0008 ± 0.00032
m1 = 4e-05 | 0.00082 ± 0.00033
m1 = 5e-05 | 0.00086 ± 0.00034
m1 = 6e-05 | 0.00088 ± 0.00035

CCCCCCCCCC[N+](CC)(CC)CCCCCCCCCC.[Br-] [didecyldiethylammonium bromide]
Details | Normal melting temperature [°C]
[2] | 45.00 ± 1.1

CCCCCCCCCCCC[N+](CC)(CC)CCCCCCCCCCCC.[Br-] [didodecyldiethylammonium bromide]
Details | Normal melting temperature [°C]
[2] | 52.20 ± 1.1

CCCCCCCCCCCCCCCC[N+](CC)(CC)CCCCCCCCCCCCCCCC.[Br-] [diethyldihexadecylammonium bromide]
Details | Normal melting temperature [°C]
[2] | 73.80 ± 1.1

CCCCCCCCCCCCCCCC[N+](C)(C)CC[N+](C)(C)CCCCCCCCCCCCCCCC.[Br-].[Br-]
Details | Normal melting temperature [°C]
[2] | 175.00 ± 1.1

CCCCCCCCCCCC[N+](C)(C)CC[N+](C)(C)CCCCCCCCCCCC.[Br-].[Br-] [1,2-bis(dimethyldodecylammonium)ethane dibromide]
Details | Normal melting temperature [°C]
[2] | 157.00 ± 1.1

CCCCCCCCCCCC[N+](C)(C)C.[Br-] [dodecyltrimethylammonium bromide]
Details | Normal melting temperature [°C]
[2] | 265.00 ± 1.1

CCCCCCCCCCCCCCCC[N+](C)(C)C.[Br-] [N,N,N-trimethyl-1-hexadecanaminium bromide]
Details | Normal melting temperature [°C]
[2] | 247.00 ± 1.1

CCCCCCCCCCCC[N+](C)(C)CC[N+](C)(C)CCCCCCCCCCCC.[Br-].[Br-] [1,2-bis(dimethyldodecylammonium)ethane dibromide] + O
Details | electrical conductivity [S/m]
[1], m1 = 0.000201 | 0.00422 ± 0.0017
[1], m1 = 0.000301 | 0.00612 ± 0.0024
[1], m1 = 0.000402 | 0.00816 ± 0.0033
[1], m1 = 0.000503 | 0.00967 ± 0.0039
[1], m1 = 0.000603 | 0.012 ± 0.0048
[1], m1 = 0.000703 | 0.0133 ± 0.0053
[1], m1 = 0.000803 | 0.0162 ± 0.0065
[1], m1 = 0.001206 | 0.0197 ± 0.0079
[1], m1 = 0.001407 | 0.0205 ± 0.0082
[1], m1 = 0.001608 | 0.0212 ± 0.0085
[1], m1 = 0.001809 | 0.022 ± 0.0088
[1], m1 = 0.00201 | 0.0226 ± 0.009
[1], m1 = 0.002211 | 0.0231 ± 0.0092
[3], 275.15 K | 0.0196 ± 0.0078
[3], 276.25 K | 0.0196 ± 0.0078
[3], 277.35 K | 0.0196 ± 0.0078
[3], 278.15 K | 0.0196 ± 0.0079
[3], 279.45 K | 0.0197 ± 0.0079
[3], 280.25 K | 0.0197 ± 0.0079
[3], 281.35 K | 0.0197 ± 0.0079
[3], 282.15 K | 0.0197 ± 0.0079
[3], 283.15 K | 0.0198 ± 0.0079
[3], 284.25 K | 0.0198 ± 0.0079
[3], 285.15 K | 0.0198 ± 0.0079
[3], 285.65 K | 0.0198 ± 0.0079
[3], 286.15 K | 0.0199 ± 0.008
[3], 288.15 K | 0.0202 ± 0.0081
[3], 289.15 K | 0.0203 ± 0.0081
[3], 290.15 K | 0.0204 ± 0.0082
[3], 291.15 K | 0.0205 ± 0.0082
[3], 292.15 K | 0.0206 ± 0.0083
[3], 293.15 K | 0.021 ± 0.0084
[3], 295.75 K | 0.0212 ± 0.0085
[3], 298.15 K | 0.0215 ± 0.0086
[3], 299.65 K | 0.0218 ± 0.0087
[3], 301.65 K | 0.022 ± 0.0088
[3], 303.45 K | 0.0222 ± 0.0089
[3], 305.75 K | 0.0225 ± 0.009
[3], 308.15 K | 0.0228 ± 0.0091
[3], 310.25 K | 0.0229 ± 0.0092
[3], 311.15 K | 0.023 ± 0.0092
[3], 313.15 K | 0.0232 ± 0.0093
[3], 315.15 K | 0.0235 ± 0.0094
[3], 317.95 K | 0.0237 ± 0.0095
[3], 318.15 K | 0.024 ± 0.0096
[3], 320.55 K | 0.0242 ± 0.0097
[3], 323.15 K | 0.0244 ± 0.0097
[3], 325.55 K | 0.0245 ± 0.0098
[3], 327.15 K | 0.0248 ± 0.0099
[3], 329.35 K | 0.0249 ± 0.01
[3], 331.55 K | 0.025 ± 0.01
[3], 334.15 K | 0.0252 ± 0.01
[3], 335.55 K | 0.0254 ± 0.01
[3], 337.95 K | 0.0255 ± 0.01
[3], 338.35 K | 0.0258 ± 0.01
[3], 340.45 K | 0.026 ± 0.01
[3], 343.15 K | 0.0263 ± 0.011
[3], 345.15 K | 0.0265 ± 0.011
[3], 347.15 K | 0.0266 ± 0.011
[3], 349.15 K | 0.0267 ± 0.011
[3], 353.05 K | 0.027 ± 0.011
